SMILES strings stand for the structures.

The EC50 is the concentration that produces a half-maximal response. A higher EC50 goes with a need for much substance.

This test has as its target T1, hSTING (Homo sapiens, UniProt Q86WV6, G230A/H232R/R293Q/R71H).
T1 construct: host or cells: THP1-Dual KO-IFNAR2 cells
Put plainly: STING reporter assay in THP1-Dual KO-IFNAR2 cells (2'3'cGAMP stimulation, luciferase reporter). The test is classed as cell-based. Conditions: 15 μM 2'3'cGAMP, 24 h. As to the method: STING pathway activation by the compounds described herein was measured using THP1-Dual™ cells (KO-IFNAR2).
THP1-Dual™ KO-IFNAR2 Cells (obtained from invivogen) were maintained in RPMI, 10% FCS, 5 ml P/S, 2 mM L-glut, 10 mM Hepes, and 1 mM sodium pyruvate. Compounds were spotted in empty 384 well tissue culture plates (Greiner 781182) by Echo for a final concentration of 0.0017-100 μM. Cells were plated into the TC plates at 40 μL per well, 2×10E6 cells/mL. For activation with STING ligand, 2′3′cGAMP (MW 718.38, obtained from Invivogen), was prepared in Optimem media.
The following solutions were prepared for each 1×384 plate: • Solution A: 2 mL Optimem with one of the following stimuli: • 60 μL of 10 mM 2′3′cGAMP→150 μM stock • Solution B: 2 mL Optimem with 60 μL Lipofectamine 2000→Incubate 5 min at RT
2 mL of solution A and 2 ml Solution B was mixed and incubated for 20 min at room temperature (RT). 20 μL of transfection solution (A+B) was added on top of the plated cells, with a final 2′3′cGAMP concentration of 15 μM. The plates were then centrifuged immediately at 340 g for 1 minute, after which they were incubated at 37° C., 5% CO2, >98% humidity for 24 h. Luciferase reporter activity was then measured. EC50 values were calculated by using standard methods known in the art.
Luciferase reporter assay: 10 μL of supernatant from the assay was transferred to white 384-plate with flat bottom and squared wells. One pouch of QUANTI-Luc™ Plus was dissolved in 25 mL of water. 100 μL of QLC Stabilizer per 25 mL of QUANTI-Luc™ Plus solution was added. 50 μL of QUANTI-Luc™ Plus/QLC solution per well was then added. Luminescence was measured on a Platereader (e.g., Spectramax I3X (Molecular Devices GF3637001)).
Luciferase reporter activity was then measured. EC50 values were calculated by using standard methods known in the art.

T1 sequence (Q86WV6 whole entry R71H/G230A/H232R/R293Q): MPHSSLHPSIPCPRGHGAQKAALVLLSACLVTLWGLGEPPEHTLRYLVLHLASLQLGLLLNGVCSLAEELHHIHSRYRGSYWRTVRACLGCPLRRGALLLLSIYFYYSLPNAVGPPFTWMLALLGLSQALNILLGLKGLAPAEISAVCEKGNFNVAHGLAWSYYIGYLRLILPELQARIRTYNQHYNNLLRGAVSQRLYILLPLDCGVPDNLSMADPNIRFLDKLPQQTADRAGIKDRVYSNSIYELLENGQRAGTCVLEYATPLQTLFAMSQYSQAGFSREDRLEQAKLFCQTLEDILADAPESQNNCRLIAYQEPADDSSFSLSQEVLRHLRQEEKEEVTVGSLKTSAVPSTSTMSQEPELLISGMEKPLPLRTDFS

With `CC(C)CN1CCN(c2cc(C#N)nc(Nc3ccc4cc[nH]c4c3)c2)CC1` [Compound 113, 6-[(1H-indol-6-yl)amino]-4-[4-(2-methylpropyl)piperazin-1-yl]pyridine-2-carbonitrile], where the note is “class symbols”, the concentration giving a half-maximal response (EC50) fell in the range of 1000 to 5000 nM.

In the case of `N#Cc1cc(Nc2ccc(C(F)(F)F)nc2)cc(Nc2ccc3cc[nH]c3c2)n1` [Compound 130, 6-[(1H-indol-6-yl)amino]-4-{[6-(trifluoromethyl)pyridin-3-yl]amino}pyridine-2-carbonitrile], the EC50 (class symbols) lay in the range of 200 to 1000 nM.

`N#Cc1cc(N2CCOCC2)cc(Nc2ccc3cc[nH]c3c2)n1` [Compound 114, 6-[(1H-indol-6-yl)amino]-4-(morpholin-4-yl)pyridine-2-carbonitrile]: the EC50 (class symbols) lay within 5000 to 100000 nM.

Regarding `N#Cc1cc(Nc2ccc(F)c(Cl)c2)cc(Nc2ccc3cc[nH]c3c2)n1` [Compound 140, 6-((1H-indol-6-yl)amino)-4-((3-chloro-4-fluorophenyl)amino)picolinonitrile], under “class symbols”, the EC50 is 200 to 1000 nM.

`N#Cc1cc(Nc2cc(Cl)cc(OC(F)(F)F)c2)cc(Nc2cc(Cl)c3cc[nH]c3c2)n1` [Compound 167, 6-[(4-chloro-1H-indol-6-yl)amino]-4-{[3-chloro-5-(trifluoromethoxy)phenyl]amino}pyridine-2-carbonitrile] yielded an EC50 (class symbols) of 200 to 1000 nM.

In turn, `CC(C)(C)c1cncc(Nc2cc(C#N)nc(Nc3ccc4cc[nH]c4c3)c2)c1` [Compound 115, 4-[(5-tert-butylpyridin-3-yl)amino]-6-[(1H-indol-6-yl)amino]pyridine-2-carbonitrile] registered an EC50 (class symbols) of 1000 to 5000 nM.

For the compound `COc1cc(Nc2cc(C#N)nc(Nc3ccc4cc[nH]c4c3)c2)cnc1Cl` [Compound 128, 4-[(6-chloro-5-methoxypyridin-3-yl)amino]-6-[(1H-indol-6-yl)amino]pyridine-2-carbonitrile], the EC50 (class symbols) fell in the range of 1000 to 5000 nM.

`CN1CCN(c2cc(C#N)nc(Nc3cc(Cl)c4cc[nH]c4c3)c2)CC1` [Compound 152, 6-[(4-chloro-1H-indol-6-yl)amino]-4-(4-methylpiperazin-1-yl)pyridine-2-carbonitrile] returned a concentration for a half-maximal effect (EC50) (class symbols) of 5000 to 100000 nM.

`N#Cc1cc(Nc2cncc(Cl)c2)cc(Nc2cc(Cl)c3cc[nH]c3c2)n1` [Compound 175, 6-[(4-chloro-1H-indol-6-yl)amino]-4-[(5-chloropyridin-3-yl)amino]pyridine-2-carbonitrile] showed an EC50 (class symbols) of 200 to 1000 nM.

For `N#Cc1cc(Nc2ccc(Cl)c(F)c2)cc(Nc2ccc3cc[nH]c3c2)n1` [Compound 139, 4-[(4-chloro-3-fluorophenyl)amino]-6-[(1H-indol-6-yl)amino]pyridine-2-carbonitrile], the EC50 (class symbols) lay in the range of 200 to 1000 nM.

With `N#Cc1cc(N2CCN(CC(F)(F)F)CC2)cc(Nc2cc(Cl)c3cc[nH]c3c2)n1` [Compound 148, 6-[(4-chloro-1H-indol-6-yl)amino]-4-[4-(2,2,2-trifluoroethyl)piperazin-1-yl]pyridine-2-carbonitrile], the 50% effective concentration (EC50) (class symbols) is 1000 to 5000 nM.

Turning to `N#Cc1cc(Cl)cc(Nc2cc(C#N)nc(Nc3ccc4cc[nH]c4c3)c2)c1` [Compound 135, 4-[(3-chloro-5-cyanophenyl)amino]-6-[(1H-indol-6-yl)amino]pyridine-2-carbonitrile], the EC50 (class symbols) lay in the range of 200 to 1000 nM.

Where the note is “class symbols”, `N#Cc1cc(N2CCOCC2)cc(Nc2cc(Cl)c3cc[nH]c3c2)n1` [Compound 161, 6-[(4-chloro-1H-indol-6-yl)amino]-4-(morpholin-4-yl)pyridine-2-carbonitrile] came in with a 50% effective concentration (EC50) of 1000 to 5000 nM.

As to `N#Cc1cc(Nc2cncc(F)c2)cc(Nc2ccc3cc[nH]c3c2)n1` [Compound 129, 4-[(5-fluoropyridin-3-yl)amino]-6-[(1H-indol-6-yl)amino]pyridine-2-carbonitrile], the EC50 (class symbols) was in the range of 1000 to 5000 nM.

For `Cc1nc2ccc(Nc3cc(C#N)nc(Nc4ccc5cc[nH]c5c4)c3)cc2s1` [Compound 105, 6-[(1H-indol-6-yl)amino]-4-[(2-methyl-1,3-benzothiazol-6-yl)amino]pyridine-2-carbonitrile], the EC50 (class symbols) fell in the range of 1000 to 5000 nM.

`N#Cc1cc(Nc2ccc3c(c2)OCCO3)cc(Nc2cc(Cl)c3cc[nH]c3c2)n1` [Compound 191, 6-[(4-chloro-1H-indol-6-yl)amino]-4-[(2,3-dihydro-1,4-benzodioxin-6-yl)amino]pyridine-2-carbonitrile] displayed a concentration giving a half-maximal response (EC50) (class symbols) of 1000 to 5000 nM.

Regarding `N#Cc1cc(Nc2ccc3c(c2)OC(F)(F)C(F)(F)O3)cc(Nc2ccc3cc[nH]c3c2)n1` [Compound 143, 6-((1H-indol-6-yl)amino)-4-((2,2,3,3-tetrafluoro-2,3-dihydrobenzo[b][1,4]dioxin-6-yl)amino)picolinonitrile], the EC50 (class symbols) fell in the range of 200 to 1000 nM.

Turning to `COc1ccc(Nc2cc(C#N)nc(Nc3cc(Cl)c4cc[nH]c4c3)c2)cn1` [Compound 166, 6-[(4-chloro-1H-indol-6-yl)amino]-4-[(6-methoxypyridin-3-yl)amino]pyridine-2-carbonitrile], the EC50 (class symbols) was in the range of 200 to 1000 nM.

Regarding `Cc1ccc(Nc2cc(C#N)nc(Nc3ccc4cc[nH]c4c3)c2)cn1` [Compound 102, 6-[(1H-indol-6-yl)amino]-4-[(6-methylpyridin-3-yl)amino]pyridine-2-carbonitrile], the EC50 (numeric bound) is over 30000 nM.

Consider `N#Cc1cc(Nc2ccc3c(c2)OC(F)(F)O3)cc(Nc2ccc3cc[nH]c3c2)n1` [Compound 117, 4-[(2,2-difluoro-2H-1,3-benzodioxol-5-yl)amino]-6-[(1H-indol-6-yl)amino]pyridine-2-carbonitrile], for which the 50% effective concentration (EC50) (class symbols) lay within 200 to 1000 nM.

`CC(C)CN1CCN(c2cc(C#N)nc(Nc3cc(Cl)c4cc[nH]c4c3)c2)CC1` [Compound 157, 6-[(4-chloro-1H-indol-6-yl)amino]-4-[4-(2-methylpropyl)piperazin-1-yl]pyridine-2-carbonitrile] showed an EC50 (class symbols) of 1000 to 5000 nM.

Compound `CNC(=O)c1ccc(Nc2cc(C#N)nc(Nc3cc(Cl)c4cc[nH]c4c3)c2)cc1F` [Compound 190, 4-({2-[(4-chloro-1H-indol-6-yl)amino]-6-cyanopyridin-4-yl}amino)-2-fluoro-N-methylbenzamide] displayed an EC50 (class symbols) of 1000 to 5000 nM.

Compound `N#Cc1cc(Nc2ccc3c(c2)C(=O)NC3)cc(Nc2cc(Cl)c3cc[nH]c3c2)n1` [Compound 180, 6-[(4-chloro-1H-indol-6-yl)amino]-4-[(3-oxo-2,3-dihydro-1H-isoindol-5-yl)amino]pyridine-2-carbonitrile] came in with an EC50 (class symbols) of 1000 to 5000 nM.

Take `CC1(C)C(=O)Nc2cc(Nc3cc(C#N)nc(Nc4ccc5cc[nH]c5c4)c3)ccc21` [Compound 122, 4-[(3,3-dimethyl-2-oxo-2,3-dihydro-1H-indol-6-yl)amino]-6-[(1H-indol-6-yl)amino]pyridine-2-carbonitrile]: the concentration for a half-maximal effect (EC50) (class symbols) was 1000 to 5000 nM.

`Cc1nn(C)c2ccc(Nc3cc(C#N)nc(Nc4cc(Cl)c5cc[nH]c5c4)c3)cc12` [Compound 176, 6-[(4-chloro-1H-indol-6-yl)amino]-4-[(1,3-dimethyl-1H-indazol-5-yl)amino]pyridine-2-carbonitrile] registered a concentration giving a half-maximal response (EC50) (class symbols) of 200 to 1000 nM.

Take `N#Cc1cc(Nc2ccc3c(c2)OC(F)(F)C(F)(F)O3)cc(Nc2cc(Cl)c3cc[nH]c3c2)n1` [Compound 189, 6-[(4-chloro-1H-indol-6-yl)amino]-4-[(2,2,3,3-tetrafluoro-2,3-dihydro-1,4-benzodioxin-6-yl)amino]pyridine-2-carbonitrile]: the EC50 (class symbols) was in the range of 40 to 200 nM.

As for `COC1CCN(c2cc(C#N)nc(Nc3ccc4cc[nH]c4c3)c2)CC1` [Compound 103, 6-[(1H-indol-6-yl)amino]-4-(4-methoxypiperidin-1-yl)pyridine-2-carbonitrile], the EC50 (numeric bound) is over 30000 nM.

In the case of `N#Cc1cc(N2CCN(CC(F)(F)F)CC2)cc(Nc2ccc3cc[nH]c3c2)n1` [Compound 120, 6-[(1H-indol-6-yl)amino]-4-[4-(2,2,2-trifluoroethyl)piperazin-1-yl]pyridine-2-carbonitrile], the EC50 (class symbols) was in the range of 5000 to 100000 nM.

Turning to `N#Cc1cc(Nc2cc(Cl)cc(OC(F)(F)F)c2)cc(Nc2ccc3cc[nH]c3c2)n1` [Compound 134, 4-{[3-chloro-5-(trifluoromethoxy)phenyl]amino}-6-[(1H-indol-6-yl)amino]pyridine-2-carbonitrile], where the note is “class symbols”, the EC50 lay in the range of 200 to 1000 nM.

In the case of `N#Cc1cc(Nc2ccc(C(F)(F)F)c(F)c2)cc(Nc2ccc3cc[nH]c3c2)n1` [Compound 104, 4-{[3-fluoro-4-(trifluoromethyl)phenyl]amino}-6-[(1H-indol-6-yl)amino]pyridine-2-carbonitrile], the EC50 (class symbols) lay within 200 to 1000 nM.

As to `N#Cc1cc(N2CCC(Cc3ccc(F)cc3)CC2)cc(Nc2cc(Cl)c3cc[nH]c3c2)n1` [Compound 149, 6-[(4-chloro-1H-indol-6-yl)amino]-4-{4-[(4-fluorophenyl)methyl]piperidin-1-yl}pyridine-2-carbonitrile], the half-maximal effective concentration (EC50) (class symbols) lay within 200 to 1000 nM.

For the compound `CN1CCN(c2cc(C#N)nc(Nc3ccc4cc[nH]c4c3)c2)CC1` [Compound 121, 6-((1H-indol-6-yl)amino)-4-(4-methylpiperazin-1-yl)picolinonitrile], the EC50 (numeric bound) was over 30000 nM.

The record behind these values is patent publication US20240076285A1, “COMPOUNDS AND COMPOSITIONS FOR TREATING CONDITIONS ASSOCIATED WITH STING ACTIVITY” (IFM Due, Inc., priority 2020, published 2024).
